Consider 4 compounds from patent publication US20240215910A1, “A METHOD FOR […] PRO-OR ANTI […] TEST COMPOUNDS” (GW Research Limited, priority 2020, published 2024).

In data set [1] the test system is tonic hind limb extensor convulsion from a single electroshock. The data set is described as follows: mini-MEST: maximal electroshock seizure threshold test using minimal sample sizes (n=6/group, log-scale current steps). The conditions noted are these: for % change from vehicle / CC50 ± SEM: N=6.
Excerpt: (§1) All animals were weighed at the beginning of the study and assigned to treatment groups (n=6/group) based on a mean distribution of body weight across groups.
The first animal within a treatment group was given a shock at the expected or estimated CC50 current. For subsequent animals, the current was lowered or raised depending on the convulsion outcome from the preceding animal in log scale intervals. Data generated from each treatment group were used to calculate the CC50±SEM values for the treatment group (see Table 5 for details).
as §1
The first animal within a treatment group was given a shock at the expected or estimated CC50 current. For subsequent animals, the current was lowered or raised depending on the convulsion outcome from the preceding animal in log scale intervals. Data generated from each treatment group were used to calculate the CC50±SEM values for the treatment group (see Table 10 for details).
as §1
The first animal within a treatment group was given a shock at the expected or estimated CC50 current. For subsequent animals, the current was lowered or raised depending on the convulsion outcome from the preceding animal in log scale intervals. Data generated from each treatment group were used to calculate the CC50±SEM values for the treatment group (see Table 15 for details).

In data set [2] the test system is tonic hind limb extensor convulsion from a single electroshock; mouse model of generalised seizure. The data set is described as follows: standard maximal electroshock seizure threshold (MEST) test (n=12/group, 5 mA intervals). Particulars: Example 4, 30 min post dose; for CC50 +/− SEM: vehicle CC50 24.3. On the procedure:
The efficacy of Compound 3 was tested in a mouse model of generalised seizure, the maximal electroshock seizure threshold (MEST) test.
All animals were weighed at the beginning of the study and randomly assigned to treatment groups (n=12/group) based on a mean distribution of body weight across groups.
The first animal within a treatment group was given a shock at the expected or
estimated CC50 current. For subsequent animals, the current was lowered or raised depending on the convulsions outcome from the preceding animal in 5 mA intervals.
Data generated from each treatment group were used to calculate the CC50±SEM values for the treatment group.
Test compound effects were also calculated as percentage change in CC50 from the vehicle control group.
Significant difference between drug-treated animals and controls were assessed according to Litchfield and Wilcoxon (1949).
In general terms: Protection in the maximal electroshock model is a classic sign of anticonvulsant action.

`C=C(C)[C@@H]1CCC(C)=C[C@H]1c1c(O)cc(-c2cnn(CC(C)(C)C)c2)cc1O` [Compound 1]: the “% change from vehicle” value in data set [1] (Example 1, 50 mg/kg i.p., 30 min post dose) was found to be 388%. For the same compound, in data set [1] (Example 1, 50 mg/kg i.p., 30 min post dose, vehicle CC50 24.5), the “CC50 ± SEM” value turned out to be 119.5 mA.

With `C=C(C)[C@@H]1CCC(C)=C[C@H]1c1c(O)cc(-c2cn(C)nn2)cc1O` [Compound 2], the “% change from vehicle” value in data set [1] (Example 2, 5 mg/kg i.p., 15 min post dose) worked out at 26%; in data set [1] (Example 2, 50 mg/kg i.p., 30 min post dose), 213%. Moreover, the “CC50 ± SEM” value in data set [1] (Example 2, 5 mg/kg i.p., 15 min post dose, vehicle CC50 22.5) is recorded as 28.3 +/− 1.1 mA; in data set [1] (Example 2, 50 mg/kg i.p., 30 min post dose, vehicle CC50 22.5), 70.5 +/− 5.8 mA.

For `C=C(C)[C@@H]1CCC(C)=C[C@H]1c1c(O)cc(-c2cnn(C)c2)cc1O` [Compound 3], the “% change from vehicle” value is reported as over 636% in data set [1] (Example 3, 200 mg/kg i.p., 120 min post dose); 27% in data set [2] (2 mg/kg i.p., N=12); 116% in data set [2] (20 mg/kg i.p., N=12); 712% in data set [2] (200 mg/kg i.p., N=12). Moreover, the “CC50 ± SEM” value in data set [1] (Example 3, 200 mg/kg i.p., 120 min post dose, no "+" seen, vehicle CC50 23.5) was over 173 mA. Besides, in data set [1] (Example 3, 200 mg/kg i.p., 120 mins before testing), the “seizure threshold as compared to vehicle (in words)” value is on record as “clear increase in seizure threshold”. Also, the “CC50 +/− SEM” value is recorded as 30.8 ± 1.0 mA in data set [2] (2 mg/kg i.p., N=12); 52.5 ± 1.3 mA in data set [2] (20 mg/kg i.p., N=12); 197.5 ± 20.4 mA in data set [2] (200 mg/kg i.p., N=12). Further, the “effect on MEST across doses (in words)” value in data set [2] (2, 20 and 200 mg/kg i.p.) is on record as “dose-related increase in MEST”.

As to `CN1C(=O)CN=C(c2ccccc2)c2cc(Cl)ccc21` [Diazepam, diazepam, reference compound], the “% change from vehicle” value in data set [1] (Example 1, 2.5 mg/kg i.p., 30 min post dose) was found to be 206%; in data set [1] (Example 2, 2.5 mg/kg i.p., 30 min post dose) it was 296%; in data set [1] (Example 3, 2.5 mg/kg i.p., 30 min post dose), 98%; in data set [2] (2.5 mg/kg i.p., N=11), 223%.
